Assay results: patent publication US12209075B2, “Pyridine-sulfonamide derivatives as sodium channel inhibitors” (GENENTECH, INC., priority 2018, dated 2025)
Structures can show the parent of a compound that is named as a salt.

How the values were obtained:
hNav1.7 [1] = biological target: T1, hNav1.7 (Homo sapiens (Human), UniProt Q15858); experiment: Tritiated compound binding to membranes from cells expressing hNav1.7 and the β1 subunit (Nav1.7 LBA EVO); conditions: competitive binding vs [3H]compound, membranes with hNav1.7 and β1 subunit
Method: Example 64a. Tritiated Compound Binding to Membranes Isolated from Cells that Heterologously Express hNav1.7 and the β1 Subunit
Preparation of membranes containing recombinantly expressed sodium channels: Frozen recombinant cell pellets are thawed on ice and diluted to 4 times the cell pellet weight with ice cold 50 mM Tris HCl, pH 7.4 buffer. The cell suspensions are homogenized on ice using a motorized glass dounce homogeniser. Homogenates are further diluted 8.4 times with ice cold 50 mM Tris HCl, pH 7.4 buffer and then centrifuged at 200×g at 4° C. for 15 minutes. The supernatants are collected and centrifuged at 10000×g at 4° C. for 50 min. The pellets are then re-suspended in 100 mM NaCl, 20 mM Tris HCl, pH 7.4 buffer containing 1% v/v protease inhibitors (Calbiochem) and re-homogenized on ice. The homogenized membranes are then processed through a syringe equipped with a 26 gauge needle. Protein concentrations arer determined by Bradford Assay and the membranes are stored at −80° C.
Radioligand Binding Studies: Saturation experiments. A competitive NaV1.7 inhibitor having a methyl group is tritiated. Three tritiums are incorporated in place of methyl hydrogens to generate [^3H]compound. Binding of this radioligand is performed in 5 mL borosilicate glass test tubes at room temperature. Binding is initiated by adding membranes to increasing concentrations of [^3H]compound in 100 mM NaCl, 20 mM Tris HCl, pH 7.4 buffer containing 0.01% w/v bovine serum albumin (BSA) for 18 h. Non-specific binding is determined in the presence of 1 μM unlabeled compound. After 18 h, the reactants are filtered through GF/C glass fiber filters presoaked in 0.5% w/v polyethylene imine. Filters are washed with 15 mL ice cold 100 mM NaCl, 20 mM Tris HCl, pH7.4 buffer containing 0.25% BSA to separate bound from free ligand. [^3H]compound bound to filters is quantified by liquid scintillation counting.
Competitive binding experiments: Binding reactions are performed in 96-well polypropylene plates at room temperature for 18 h. In 360 μL, membranes are incubated with 100 pM [^3H]compound and increasing concentrations of Test Compound. Non-specific binding is defined in the presence of 1 μM unlabeled compound. Reactions are transferred and filtered through 96-well glass fiber/C filter plates presoaked with 0.5% polyethylene imine. The filtered reactions are washed 5 times with 200 μL ice cold buffer containing 0.25% BSA. Bound radioactivity is determined by liquid scintillation counting.
Data Analysis: For saturation experiments, non-specific binding is subtracted from total binding to provide specific binding and these values are recalculated in terms of pmol ligand bound per mg protein. Saturation curves are constructed and dissociation constants are calculated using the single site ligand binding model: Beq=(Bmax*X)/(X+Kd), where Beq is the amount of ligand bound at equilibrium, Bmax is the maximum receptor density, Kd is the dissociation constant for the ligand, and X is the free ligand concentration. For competition studies percent inhibition is determined and IC50 values are calculated using a 4 parameter logistic model (% inhibition=(A+((B−A)/(1+((x/C)^D)))) using XLfit, where A and B are the maximal and minimum inhibition respectively, C is the IC50 concentration and D is the (Hill) slope.
Example 64b. Tritiated Compound Binding to Membranes Isolated from Cells that Heterologous Express hNav1.7 and the β1 Subunit
Preparation of membranes containing recombinantly expressed sodium channels: Following the procedure described in 31a, and making modifications as required to: centrifuge supernatants at 100000×g instead of 10000×g; re-suspend pellets in a buffer containing 0.01% BSA in addition to 100 mM NaCl, 20 mM Tris HCl, pH 7.4 buffer, and 1% v/v […]; and storing membranes at −80° C. in single use aliquots instead of pooled. […]
Target sequence in this assay (Q15858 whole entry, looked up): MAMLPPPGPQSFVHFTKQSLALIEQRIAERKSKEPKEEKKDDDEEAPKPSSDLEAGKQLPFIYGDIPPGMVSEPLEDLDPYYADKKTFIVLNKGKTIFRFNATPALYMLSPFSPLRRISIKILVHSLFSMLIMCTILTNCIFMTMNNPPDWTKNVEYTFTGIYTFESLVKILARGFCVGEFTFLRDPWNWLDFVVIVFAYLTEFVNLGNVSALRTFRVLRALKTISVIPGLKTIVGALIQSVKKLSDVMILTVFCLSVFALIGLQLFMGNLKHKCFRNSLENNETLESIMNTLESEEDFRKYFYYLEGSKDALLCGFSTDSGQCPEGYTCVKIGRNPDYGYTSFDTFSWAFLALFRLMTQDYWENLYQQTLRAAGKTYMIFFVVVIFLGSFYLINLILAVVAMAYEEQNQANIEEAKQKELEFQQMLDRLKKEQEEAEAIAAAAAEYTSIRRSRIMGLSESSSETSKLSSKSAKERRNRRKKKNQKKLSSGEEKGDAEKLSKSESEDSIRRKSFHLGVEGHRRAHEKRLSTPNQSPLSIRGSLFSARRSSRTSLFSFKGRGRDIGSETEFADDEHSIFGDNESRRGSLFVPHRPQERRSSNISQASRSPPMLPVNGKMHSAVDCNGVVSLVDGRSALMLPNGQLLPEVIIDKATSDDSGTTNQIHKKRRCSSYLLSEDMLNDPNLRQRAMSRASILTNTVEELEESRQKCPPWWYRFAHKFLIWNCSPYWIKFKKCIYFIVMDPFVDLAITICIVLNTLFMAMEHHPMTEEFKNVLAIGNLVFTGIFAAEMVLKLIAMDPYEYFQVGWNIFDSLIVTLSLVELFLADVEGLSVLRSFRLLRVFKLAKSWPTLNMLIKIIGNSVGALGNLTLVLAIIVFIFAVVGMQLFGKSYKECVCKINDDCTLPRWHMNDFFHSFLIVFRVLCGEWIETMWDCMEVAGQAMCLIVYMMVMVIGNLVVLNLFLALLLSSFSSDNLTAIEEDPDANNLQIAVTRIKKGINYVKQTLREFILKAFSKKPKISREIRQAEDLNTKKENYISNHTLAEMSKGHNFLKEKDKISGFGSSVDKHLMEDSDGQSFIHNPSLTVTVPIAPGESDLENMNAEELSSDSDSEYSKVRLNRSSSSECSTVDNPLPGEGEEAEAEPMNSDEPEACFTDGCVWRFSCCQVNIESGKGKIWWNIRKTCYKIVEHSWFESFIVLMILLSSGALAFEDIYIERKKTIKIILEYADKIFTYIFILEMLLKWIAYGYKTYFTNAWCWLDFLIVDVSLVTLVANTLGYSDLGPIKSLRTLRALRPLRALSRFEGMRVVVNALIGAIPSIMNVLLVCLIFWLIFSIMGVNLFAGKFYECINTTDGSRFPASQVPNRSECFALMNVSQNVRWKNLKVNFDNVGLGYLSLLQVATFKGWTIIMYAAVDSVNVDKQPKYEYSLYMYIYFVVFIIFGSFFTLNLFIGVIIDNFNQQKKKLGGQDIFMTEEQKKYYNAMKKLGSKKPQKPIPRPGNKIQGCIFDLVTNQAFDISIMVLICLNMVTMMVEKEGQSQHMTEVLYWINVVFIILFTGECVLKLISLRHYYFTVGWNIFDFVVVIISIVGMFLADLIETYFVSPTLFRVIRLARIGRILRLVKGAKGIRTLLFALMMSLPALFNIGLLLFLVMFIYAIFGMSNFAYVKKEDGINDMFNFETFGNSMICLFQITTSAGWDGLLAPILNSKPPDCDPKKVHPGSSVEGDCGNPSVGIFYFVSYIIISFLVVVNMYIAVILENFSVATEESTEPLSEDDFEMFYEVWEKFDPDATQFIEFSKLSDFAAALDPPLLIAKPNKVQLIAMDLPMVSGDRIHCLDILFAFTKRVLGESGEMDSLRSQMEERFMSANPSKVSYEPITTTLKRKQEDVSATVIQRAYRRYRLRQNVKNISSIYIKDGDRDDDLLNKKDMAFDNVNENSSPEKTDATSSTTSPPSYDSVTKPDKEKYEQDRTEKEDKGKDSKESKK
Target sequence in this assay (Q07699 whole entry partner, looked up): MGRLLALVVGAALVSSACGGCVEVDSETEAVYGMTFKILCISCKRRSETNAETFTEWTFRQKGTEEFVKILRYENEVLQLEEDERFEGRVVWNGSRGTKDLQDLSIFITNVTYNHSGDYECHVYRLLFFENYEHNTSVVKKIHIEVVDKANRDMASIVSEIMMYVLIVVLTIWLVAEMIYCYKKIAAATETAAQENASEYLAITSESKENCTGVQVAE

hNav1.7 [2] = biological target: T1, hNav1.7; experiment: Patch voltage clamp electrophysiology assay (EP), Syncropatch 384PE, CHO cells expressing Nav1.7; assay type: cell-based; conditions: holding potential −50 mV, 7.5 min compound incubation; read-out: EP_SP hNav1.7 EVO IC50
Excerpt: Example 64c. Electrophysiological Assay (EP) (In Vitro Assay)
Patch voltage clamp electrophysiology allows for the direct measurement and quantification of block of voltage-gated sodium channels (NaV's), and allows the determination of the time- and voltage-dependence of block which has been interpreted as differential binding to the resting, open, and inactivated states of the sodium channel (Hille, B., Journal of General Physiology (1977), 69: 497-515).
The following voltage clamp electrophysiology studies are performed on representative compounds using cells heterologously expressing Nav1.7 or Nav1.5 channels. cDNAs for Nav1.7 (NM 002977) and Nav1.5 (AC137587) are stably expressed in Chinese Hamstr Ovary (CHO) cells and CHL (Chinese Hamster Lung) cells respectively. Sodium currents are measured in the whole-cell configuration using Syncropatch 384PE ([…], Germany). 1NPC®-384 chips with custom medium resistance and single hole mode are used. Internal solution consists of (in mM): […], 10CsCl, 20EGTA, and 10Hepes (pH adjusted to 7.2); and external solution contains (in mM): 60NMDG, 80NaCl, 4 KCl, 1MgCl2, 2CaCl2, 2D-Glucose monohydrate, 10Hepes (pH adjusted to 7.4 with NaOH).
After system flushing, testing compounds are dissolved in external solution containing 0.1% Pluronic F-127. The chip is moved into the measuring head and the instrument primes the chip with external and internal solutions. 10 μl cells are added to the chip from a cell hotel, and a negative pressure of −50 mBar is applied to form a seal. Following treatment with seal enhancer solution and wash-off with external solution, negative pressure of −250 mbar is applied for 1 second to achieve the whole-cell configuration, followed by three washing steps in external solution. 20 μl of compounds is added to 40 μl in each well (1:3 dilution of compounds), and after mixing, 20 μl is removed so the volume is retained at 40 ul. After approximately 13 minutes recordings, 20 μl/well of 2 uM TTX, or 333 uM Tetracaine (for Nav1.5) is added to achieve full block.
For voltage protocol, an holding potential of −50 mV is applied during the whole experiment. A depolarizing step is applied to −10 mV for 10 ms, followed by a hyperpolarization step to −150 mV for 20 ms to allow channel recovery from inactivation. A second depolarizing step is applied from −150 mV to −10 mV for 10 ms, where currents are measured to derive blocking effects of compounds. Inhibition is determined based on 7.5 min of compound incubation.
Target sequence in this assay (Q15858 other isoform, or with tags, fused parts or gaps): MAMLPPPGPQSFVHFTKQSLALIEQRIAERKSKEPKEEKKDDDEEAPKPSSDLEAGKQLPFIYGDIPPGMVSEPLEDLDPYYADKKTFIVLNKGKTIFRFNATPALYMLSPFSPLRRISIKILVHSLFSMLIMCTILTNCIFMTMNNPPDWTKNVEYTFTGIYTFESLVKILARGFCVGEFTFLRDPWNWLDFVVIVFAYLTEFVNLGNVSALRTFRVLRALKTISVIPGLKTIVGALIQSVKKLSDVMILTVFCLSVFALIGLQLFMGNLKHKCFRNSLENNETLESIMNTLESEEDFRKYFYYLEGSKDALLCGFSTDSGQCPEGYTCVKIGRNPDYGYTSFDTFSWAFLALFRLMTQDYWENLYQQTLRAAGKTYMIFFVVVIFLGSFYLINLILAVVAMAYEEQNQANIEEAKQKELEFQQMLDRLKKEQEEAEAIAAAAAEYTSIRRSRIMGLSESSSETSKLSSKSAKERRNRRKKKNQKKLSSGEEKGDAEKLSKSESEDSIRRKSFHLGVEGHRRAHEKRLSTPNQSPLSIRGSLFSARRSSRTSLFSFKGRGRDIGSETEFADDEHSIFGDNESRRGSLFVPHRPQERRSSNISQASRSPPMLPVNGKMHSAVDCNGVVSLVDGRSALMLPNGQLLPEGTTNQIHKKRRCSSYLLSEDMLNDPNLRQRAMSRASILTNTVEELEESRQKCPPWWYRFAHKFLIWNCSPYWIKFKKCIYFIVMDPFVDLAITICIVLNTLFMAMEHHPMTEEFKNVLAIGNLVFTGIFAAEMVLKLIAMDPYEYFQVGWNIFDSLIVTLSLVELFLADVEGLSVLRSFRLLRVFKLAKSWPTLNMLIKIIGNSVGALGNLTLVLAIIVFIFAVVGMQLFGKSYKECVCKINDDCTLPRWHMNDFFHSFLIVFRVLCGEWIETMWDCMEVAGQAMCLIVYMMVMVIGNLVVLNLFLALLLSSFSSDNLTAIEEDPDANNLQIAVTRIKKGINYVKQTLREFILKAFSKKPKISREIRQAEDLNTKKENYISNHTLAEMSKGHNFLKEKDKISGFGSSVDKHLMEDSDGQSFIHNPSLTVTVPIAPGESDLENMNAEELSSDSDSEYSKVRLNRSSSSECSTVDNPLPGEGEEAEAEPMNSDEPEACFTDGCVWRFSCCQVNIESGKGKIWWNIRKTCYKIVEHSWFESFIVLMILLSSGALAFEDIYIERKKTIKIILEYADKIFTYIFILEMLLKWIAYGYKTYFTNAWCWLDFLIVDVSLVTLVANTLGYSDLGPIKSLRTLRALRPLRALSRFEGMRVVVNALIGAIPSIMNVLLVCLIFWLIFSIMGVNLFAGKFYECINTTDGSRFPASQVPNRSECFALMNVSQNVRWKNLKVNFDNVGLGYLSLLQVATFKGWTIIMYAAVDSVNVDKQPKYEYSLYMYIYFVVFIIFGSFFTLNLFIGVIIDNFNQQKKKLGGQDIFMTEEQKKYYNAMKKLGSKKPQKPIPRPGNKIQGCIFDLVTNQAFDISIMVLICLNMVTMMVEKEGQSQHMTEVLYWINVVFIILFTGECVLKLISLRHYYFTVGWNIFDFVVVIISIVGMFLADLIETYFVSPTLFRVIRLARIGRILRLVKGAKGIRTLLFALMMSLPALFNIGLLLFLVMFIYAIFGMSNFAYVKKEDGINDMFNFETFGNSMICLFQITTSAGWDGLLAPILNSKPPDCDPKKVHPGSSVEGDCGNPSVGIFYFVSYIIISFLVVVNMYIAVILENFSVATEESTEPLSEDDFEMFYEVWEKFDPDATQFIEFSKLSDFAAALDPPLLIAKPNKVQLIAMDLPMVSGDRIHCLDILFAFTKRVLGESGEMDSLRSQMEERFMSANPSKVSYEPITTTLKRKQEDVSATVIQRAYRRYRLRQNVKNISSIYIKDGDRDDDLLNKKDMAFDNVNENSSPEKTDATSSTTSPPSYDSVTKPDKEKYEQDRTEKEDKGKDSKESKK

What does the source list for `Cc1nc(O[C@H]2CC[C@H](c3ccc(Cl)c(Cl)c3)C[C@@H]2N(C)C)ccc1S(=O)(=O)Nc1ccncn1` [Example 37, 6-(((1S,2S,4S)-4-(3,4-dichlorophenyl)-2-(dimethylamino)cyclohexyl)oxy)-2-methyl-N-(pyrimidin-4-yl)pyridine-3-sulfonamide]?
IC50 (hNav1.7 [1]): 1.36 nM; IC50 (hNav1.7 [2]): 0.301 nM

`CN(C)[C@H]1C[C@@H](c2cccc(Cl)c2)CC[C@@H]1Oc1ncc(S(=O)(=O)Nc2ccncn2)cc1Cl` [Example 27, 5-Chloro-6-(((1S,2S,4S)-4-(3-chlorophenyl)-2-(dimethylamino)cyclohexyl)oxy)-N-(pyrimidin-4-yl)pyridine-3-sulfonamide] was tested. Which IC50 (hNav1.7 [1]) did it give?
The IC50 was 7.12 nM.

What about the IC50 (hNav1.7 [2]) of the same compound?
The IC50 was 0.574 nM.

`CN(C)[C@H]1C[C@@H](c2cccc(OC(F)(F)F)c2)CC[C@@H]1Nc1ccc(S(=O)(=O)Nc2ccncn2)cn1` [Example 8, 6-(((1S,2S,4S)-2-(dimethylamino)-4-(3-(trifluoromethoxy)phenyl)cyclohexyl)amino)-N-(pyrimidin-4-yl)pyridine-3-sulfonamide formate] was tested. Which IC50 (hNav1.7 [1]) did it give?
Its IC50 is 7.12 nM.

And the IC50 (hNav1.7 [2])?
Its IC50 is 0.574 nM.

Which IC50 (hNav1.7 [1]) does the source give for `Cc1nc(O[C@H]2CC[C@H](c3cc(Cl)cc(Cl)c3)C[C@@H]2N(C)C)ccc1S(=O)(=O)Nc1ccncn1` [Example 50, 6-(((1S,2S,4S)-4-(3,5-dichlorophenyl)-2-(dimethylamino)cyclohexyl)oxy)-2-methyl-N-(pyrimidin-4-yl)pyridine-3-sulfonamide] here?
Its IC50 is 1.12 nM.

And the IC50 (hNav1.7 [2])?
Its IC50 is 0.222 nM.

With `CN(C)[C@H]1C[C@@H](c2cccc(C(F)(F)F)c2)CC[C@@H]1Oc1cc(Cl)c(S(=O)(=O)Nc2ccncn2)cn1` [Example 31, 4-Chloro-6-(((1S,2S,4S)-2-(dimethylamino)-4-(3-(trifluoromethyl)phenyl)cyclohexyl)oxy)-N-(pyrimidin-4-yl)pyridine-3-sulfonamide] as the compound, how does the IC50 (hNav1.7 [1]) read?
Its IC50 is 1.89 nM.

With `Cc1ccc(C(F)(F)F)cc1[C@H]1CC[C@H](Oc2ccc(S(=O)(=O)Nc3ccncn3)c(C)n2)[C@@H](N(C)C)C1` [Example 54, 6-(((1S,2S,4S)-2-(dimethylamino)-4-(2-methyl-5-(trifluoromethyl)phenyl)cyclohexyl)oxy)-2-methyl-N-(pyrimidin-4-yl)pyridine-3-sulfonamide] as the compound, how does the IC50 (hNav1.7 [1]) read?
The IC50 was 0.695 nM.

How did the IC50 (hNav1.7 [1]) turn out when `O=S(=O)(Nc1ccncn1)c1ccc(N[C@H]2CC[C@H](c3cccc(OC(F)(F)F)c3)C[C@@H]2N2CCCC2)nc1` [Example 9, N-(pyrimidin-4-yl)-6-(((1S,2S,4S)-2-(pyrrolidin-1-yl)-4-(3-(trifluoromethoxy)phenyl)cyclohexyl)-amino)pyridine-3-sulfonamide formate] was run?
Its IC50 is 4.11 nM.

And the IC50 (hNav1.7 [2])?
Its IC50 is 0.664 nM.

For `CN(C)[C@H]1C[C@@H](c2cccc(C(F)(F)F)c2)CC[C@@H]1Oc1ccc(S(=O)(=O)Nc2ccncn2)c(Cl)n1` [Example 22, 2-Chloro-6-(((1S,2S,4S)-2-(dimethylamino)-4-(3-(trifluoromethyl)phenyl)cyclohexyl)oxy)-N-(pyrimidin-4-yl)pyridine-3-sulfonamide], which IC50 (hNav1.7 [1]) is on record?
The IC50 was 40 nM.

What does the source list for “6-(((1S,2S,4S)-2-(dimethylamino)-4-(6-(trifluoromethyl)pyridin-2-yl)cyclohexyl)oxy)-2-methyl-N-(pyrimidin-4-yl)pyridine-3-sulfonamide [Example 51]”?
IC50 (hNav1.7 [1]): 0.985 nM; IC50 (hNav1.7 [2]): 4.59 nM

`Cc1nc(O[C@H]2CC[C@H](c3cccc(C(F)(F)F)c3)C[C@@H]2N2CCCC2)ccc1S(=O)(=O)Nc1ccncn1` [Example 29, 2-Methyl-N-(pyrimidin-4-yl)-6-(((1S,2S,4S)-2-(pyrrolidin-1-yl)-4-(3-(trifluoromethyl)phenyl)-cyclohexyl)oxy)pyridine-3-sulfonamide] was tested. Which IC50 (hNav1.7 [1]) did it give?
The IC50 was 67.4 nM.

Which IC50 (hNav1.7 [1]) does the source give for `COc1cc(S(=O)(=O)Nc2ccncn2)cnc1O[C@H]1CC[C@H](c2cccc(C(F)(F)F)c2)C[C@@H]1N(C)C` [Example 61, 6-(((1S,2S,4S)-2-(Dimethylamino)-4-(3-(trifluoromethyl)phenyl)cyclohexyl)oxy)-5-methoxy-N-(pyrimidin-4-yl)pyridine-3-sulfonamide formate] here?
The IC50 was 1.9 nM.

With `CN(C)[C@H]1C[C@@H](c2cccc(C(F)(F)F)c2)CC[C@@H]1Oc1ncc(S(=O)(=O)Nc2ccncn2)cc1C1CC1` [Example 7, 5-Cyclopropyl-6-(((1S,2S,4S)-2-(dimethylamino)-4-(3-(trifluoromethyl)phenyl)cyclohexyl)oxy)-N-(pyrimidin-4-yl)pyridine-3-sulfonamide formate] as the compound, how does the IC50 (hNav1.7 [1]) read?
Its IC50 is 4.88 nM.

With `CN(C)[C@H]1C[C@@H](c2ccc(Cl)c(C(F)(F)F)c2)CC[C@@H]1Nc1ccc(S(=O)(=O)Nc2ccncn2)cn1` [Example 11, 6-(((1S,2S,4S)-4-(4-chloro-3-(trifluoromethyl)phenyl)-2-(dimethylamino)cyclohexyl)amino)-N-(pyrimidin-4-yl)pyridine-3-sulfonamide formate] as the compound, how does the IC50 (hNav1.7 [1]) read?
The IC50 was 16.6 nM.

For `O=S(=O)(Nc1ccncn1)c1ccc(O[C@H]2CC[C@H](c3cccc(OC(F)(F)F)c3)C[C@@H]2N2CCCC2)nc1` [Example 10, N-(pyrimidin-4-yl)-6-(((1S,2S,4S)-2-(pyrrolidin-1-yl)-4-(3-(trifluoromethoxy)phenyl)cyclohexyl)oxy)-pyridine-3-sulfonamide], which IC50 (hNav1.7 [1]) is on record?
Its IC50 is 67.4 nM.

With `CCN(CC)[C@H]1C[C@@H](c2cccc(C(F)(F)F)c2)CC[C@@H]1Oc1ccc(S(=O)(=O)Nc2ccncn2)c(C)n1` [Example 47, 6-(((1S,2S,4S)-2-(Diethylamino)-4-(3-(trifluoromethyl)phenyl)cyclohexyl)oxy)-2-methyl-N-(pyrimidin-4-yl)pyridine-3-sulfonamide] as the compound, how does the IC50 (hNav1.7 [1]) read?
The IC50 was 0.915 nM.

For `Cc1nc(O[C@H]2CC[C@H](c3cccc(C(F)(F)F)c3C)C[C@@H]2N(C)C)ccc1S(=O)(=O)Nc1ccncn1` [Example 60, 6-(((1S,2S,4S)-2-(dimethylamino)-4-(2-methyl-3-(trifluoromethyl)phenyl)cyclohexyl)oxy)-2-methyl-N-(pyrimidin-4-yl)pyridine-3-sulfonamide], which IC50 (hNav1.7 [1]) is on record?
The IC50 was 3.51 nM.
